“And” between values parts separate entries of the source, which are not always exact repeats. Identical values can stand only once.
System: 186277-243-T-J2-PDC complex spheroid viability
Test: Anticancer human tumor 186277-243-T-J2-PDC patient-derived colon adenocarcinoma cell line growth inhibition [POLQ]
Details: for viability, T/C: stronger effect = lower value; active means viability on the fitted dose curve at most 10% of control; inactive means the rest
Method: Multicellular complex tumor spheroid response to Polymerase (POL) inhibitors (novobiocin, ART-558, RP6685) in combination with a variety of drugs and investigational agents in selected tumor cell lines
The POL inhibitors (novobiocin, ART-558, and RP6685) were evaluated both individually and in combination with standard of care and investigational anticancer small molecules within a complex spheroid model of solid tumors. . Complex spheroids include a stromal component modeled by human endothelial cells (HUVEC) and fibroblasts modeled by human mesenchymal stem cells (MSCs). The concentration ranges selected for each drug and investigational agent were based upon clinically achievable concentrations if the clinical Cmax of the agent was known.
Compounds. The drugs and investigational agents: novobiocin (NSC847541), ART-558 (NSC835418), RP-6685 (NSC848927), peposertib (NSC802822), ceralasertib (NSC780249), elimusertib (NSC800525), camonsertib (NSC841442), AZD-1390 (NSC803789), olaparib (NSC753686), talazoparib (NSC767125), rucaparib (NSC756644), sotorasib (NSC818433), MRTX-1133 (NSC836407), SN-38 (NSC673596), topotecan (NSC609699), epotoside (NSC141540), doxorubicin (NSC123127), gemcitabine (NSC613327), 5-fluorouracil (NSC19893), paclitaxel (NSC125973), vemurafenib (NSC761431), MSA-2 (NSC828583), SN-011 (NSC837082), adavosertib (NSC754352), prexasertib (NSC758257), carboplatin (NSC241240) and oxaliplatin (NSC266046), were obtained from the National Cancer Institute (NCI) Developmental Therapeutics Program Chemical Repository (21). The FDA-approved anticancer drug set is available from the Developmental Therapeutics Program at https://dtp.cancer.gov/organization/dscb/obtaining/. […] The stock solutions were prepared in dimethyl sulfoxide (DMSO, Sigma-Aldrich, St. Louis, MO, cat. D2650), except for the platinum compounds which were prepared in saline (Quality Biological, Gaithersburg, MD, cat. 114-055-101), at 800-fold the tested concentration and stored at -70 degrees C prior to their use. All drugs and investigational agents were tested over a range starting from a high concentration at or near the clinical Cmax and decreasing in half-log increments. If the clinical Cmax for an agent had not been determined, the highest concentration tested was 10 microM, except for SN-38, which was tested at a high concentration of 1 microM.
Cell Culture. All cells were maintained in an incubator at 37 degrees C and 5% CO2 with 95% humidity. The PDC lines were cultured according to standard operating procedures established by the NCI PDMR (https://pdmr.cancer.gov). Table 3 of the manuscript, lists the cell lines along with the number of the three cell types plated to form the mct-spheroids and media for tumor cell growth. After thawing, all PDC lines, except 997537-175-T-J1-PDC and 415267-285-R-J2-PDC, were cultured in Matrigel-coated flasks prepared with a working solution of 1X Ham's F-12 nutrient mix, without supplementation (Thermo Fisher Scientific, cat. 11765054), 100 U/mL penicillin-streptomycin (Thermo Fisher Scientific, cat. 15140122), and 2.5% Matrigel (Corning Inc., Corning, NY, cat. 354248) for the first three passages. The two PDC lines 997537-175-T-J1-PDC and 415267-285-R-J2-PDC were cultured on uncoated flasks. The 857933-349-R-J2-PDC line was cultured in 6C/Colon 1B media containing advanced DMEM/F-12 (Thermo Fisher Scientific, cat. 12634028), 10 mM HEPES (Thermo Fisher Scientific, cat. 15630080), 1X GlutaMAX supplement (Thermo Fisher Scientific, cat. 35050061), 0.1 mg/mL primocin (InvivoGen, San Diego, CA, cat. ant-pm-2), 10% defined fetal bovine serum, heat inactivated (HyClone Laboratories Inc., Logan, UT, cat. SH30070.03HI), 50% L-WRN conditioned media (ATCC, cat. CRL-3276), 1.25 mM N-Acetyl-L-cysteine (Sigma-Aldrich, cat. A9165), 10 mM nicotinamide (Sigma-Aldrich, cat. N0636), 1X B-27 supplement (Thermo Fisher Scientific, cat. 17504044), 1X N-2 supplement (Thermo Fisher Scientific, cat. […]

[1] = curve of first compound, second compound 0.0316 µM
[2] = curve of first compound, second compound 0.1 µM
[3] = curve of first compound, second compound 0.316 µM
[4] = curve of first compound, second compound 1 µM
[5] = curve of first compound, second compound 3.16 µM
[6] = curve of first compound, second compound 10 µM
[7] = second compound 0.0316 µM, first compound 0.0316 µM
[8] = second compound 0.0316 µM, first compound 0.1 µM
[9] = second compound 0.0316 µM, first compound 0.316 µM
[10] = second compound 0.0316 µM, first compound 1 µM
[11] = second compound 0.1 µM, first compound 0.0316 µM
[12] = second compound 0.1 µM, first compound 0.1 µM
[13] = second compound 0.1 µM, first compound 0.316 µM
[14] = second compound 0.1 µM, first compound 1 µM
[15] = second compound 0.316 µM, first compound 0.0316 µM
[16] = second compound 0.316 µM, first compound 0.1 µM
[17] = second compound 0.316 µM, first compound 0.316 µM
[18] = second compound 0.316 µM, first compound 1 µM
[19] = second compound 1 µM, first compound 0.0316 µM
[20] = second compound 1 µM, first compound 0.1 µM
[21] = second compound 1 µM, first compound 0.316 µM
[22] = second compound 1 µM, first compound 1 µM
[23] = second compound 3.16 µM, first compound 0.0316 µM
[24] = second compound 3.16 µM, first compound 0.1 µM
[25] = second compound 3.16 µM, first compound 0.316 µM
[26] = second compound 3.16 µM, first compound 1 µM
[27] = second compound 10 µM, first compound 0.0316 µM
[28] = second compound 10 µM, first compound 0.1 µM
[29] = second compound 10 µM, first compound 0.316 µM
[30] = second compound 10 µM, first compound 1 µM
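Further: spheroids exposed to compounds for seven days.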

COc1cccc2c1C(=O)c1c(O)c3c(c(O)c1C2=O)CC(O)(C(=O)CO)CC3OC1CC(N)C(O)C(C)O1 (stereo unspecified) + Nc1ccc(C#CCN(C(=O)Cc2ncc(C(F)(F)F)cc2C(F)(F)F)c2ccc(F)cc2)nn1
236 nM: IC50 [4]
255 nM: IC50 [1]
231 nM: IC50 [5]
inactive: viability, T/C [7] 144% | viability, T/C [8] 110% | viability, T/C [9] 37.2% | viability, T/C [11] 169% | viability, T/C [12] 107% | viability, T/C [13] 39% | viability, T/C [15] 156% | viability, T/C [16] 106% | viability, T/C [17] 40.7% | viability, T/C [19] 171% | viability, T/C [20] 106% | viability, T/C [21] 32.5% | viability, T/C [23] 153% | viability, T/C [24] 101% | viability, T/C [25] 32.4% | viability, T/C [27] 131% | viability, T/C [28] 76.4% | viability, T/C [29] 21.8%
253 nM: IC50 [2]
active: viability, T/C [10] 1.35% | viability, T/C (second compound 0.0316 µM, first compound 3.16 µM) 0.27% | viability, T/C (second compound 0.0316 µM, first compound 10 µM) 1.66% | viability, T/C [14] 1.35% | viability, T/C (second compound 0.1 µM, first compound 3.16 µM) 0.37% | viability, T/C (second compound 0.1 µM, first compound 10 µM) 1.4% | viability, T/C [18] 1.12% | viability, T/C (second compound 0.316 µM, first compound 3.16 µM) 1.33% | viability, T/C (second compound 0.316 µM, first compound 10 µM) 0.64% | viability, T/C [22] 1.58% | viability, T/C (second compound 1 µM, first compound 3.16 µM) 1.81% | viability, T/C (second compound 1 µM, first compound 10 µM) 2.38% | viability, T/C [26] 0.94% | viability, T/C (second compound 3.16 µM, first compound 3.16 µM) 1.21% | viability, T/C (second compound 3.16 µM, first compound 10 µM) 1.74% | viability, T/C [30] 1.09% | viability, T/C (second compound 10 µM, first compound 3.16 µM) 1.27% | viability, T/C (second compound 10 µM, first compound 10 µM) 0.63%
173 nM: IC50 [6]
258 nM: IC50 [3]

CC(C)n1c(=O)n(C)c2cnc3cc(F)c(-c4ccc(OCCCN5CCCCC5)nc4)cc3c21
> 10000 nM: IC50 (curve of compound)
inactive: viability, T/C (compound 0.0316 µM) 86.3% and 111% and 107% | viability, T/C (compound 0.1 µM) 104% and 91.8% and 97.7% | viability, T/C (compound 0.316 µM) 89.3% and 95.6% and 91.6% | viability, T/C (compound 1 µM) 100% and 98.3% and 88.6% | viability, T/C (compound 3.16 µM) 100% and 98.2% and 98.4% | viability, T/C (compound 10 µM) 86% and 92.2% and 96.9%

C=CCn1c(=O)c2cnc(Nc3ccc(N4CCN(C)CC4)cc3)nc2n1-c1cccc(C(C)(C)O)n1 + COC1C(OC(N)=O)C(O)C(Oc2ccc3c(O)c(NC(=O)c4ccc(O)c(CC=C(C)C)c4)c(=O)oc3c2C)OC1(C)C
185 nM: IC50 [2]
inactive: viability, T/C (second compound 0.0316 µM, first compound 0.00316 µM) 100% | viability, T/C (second compound 0.0316 µM, first compound 0.01 µM) 88.2% | viability, T/C [7] 109% | viability, T/C [8] 93.4% | viability, T/C [9] 14.8% | viability, T/C (second compound 0.1 µM, first compound 0.00316 µM) 83.8% | viability, T/C (second compound 0.1 µM, first compound 0.01 µM) 97.8% | viability, T/C [11] 107% | viability, T/C [12] 91.3% | viability, T/C [13] 13.7% | viability, T/C (second compound 0.316 µM, first compound 0.00316 µM) 93.4% | viability, T/C (second compound 0.316 µM, first compound 0.01 µM) 87.7% | viability, T/C [15] 99.2% | viability, T/C [16] 100% | viability, T/C [17] 14.1% | viability, T/C (second compound 1 µM, first compound 0.00316 µM) 103% | viability, T/C (second compound 1 µM, first compound 0.01 µM) 104% | viability, T/C [19] 104% | viability, T/C [20] 91.8% | viability, T/C [21] 11.1% | viability, T/C (second compound 3.16 µM, first compound 0.00316 µM) 104% | viability, T/C (second compound 3.16 µM, first compound 0.01 µM) 96.2% | viability, T/C [23] 109% | viability, T/C [24] 85.8% | viability, T/C [25] 13.5% | viability, T/C (second compound 10 µM, first compound 0.00316 µM) 104% | viability, T/C (second compound 10 µM, first compound 0.01 µM) 110% | viability, T/C [27] 95.2% | viability, T/C [28] 87.6% | viability, T/C [29] 12%
active: viability, T/C [10] 7.82% | viability, T/C [14] 7.76% | viability, T/C [18] 8.59% | viability, T/C [22] 8.27% | viability, T/C [26] 7.48% | viability, T/C [30] 7.75%
182 nM: IC50 [4]
177 nM: IC50 [5]
190 nM: IC50 [3]
189 nM: IC50 [1]
178 nM: IC50 [6]

Source: PubChem BioAssay AID1963854 (Molecular Pharmacology Branch, DTP, NCI, 2024)
